The results in this text go back to US8697641B2, “4-amino-4-oxobutanoyl peptide cyclic analogues, inhibitors of viral replication” (Achillion Pharmaceuticals, Inc., priority 2008, dated 2014).

The test system of this experiment is Hepatitis C replicon. Kind of experiment: HCV replicon assay (NPT ELISA readout) in Huh-7 replicon-containing cells. It counts as cell-based, Hepatitis C virus. To be noted: Hepatitis C virus, 72 h; HCV replicon in Huh-7 cells, three days incubation. On the procedure: Compounds claimed herein are tested for the ability to inhibit viral replication of the Hepatitis C replicon in cultured cells in which the HCV replicon construct has been incorporated. The HCV replicon system was described by Bartenschlager, et. al (Science, 285, pp. 110-113 (1999)). The replicon system is predictive of in vivo anti-HCV activity; compounds that are active in humans uniformly evidence activity in the replicon assay.
In this assay HCV replicon containing cells are treated with different concentrations of the test compound to ascertain the ability of the test compound to suppress replication of the HCV replicon. As a positive control, HCV replicon-containing cells are treated with different concentrations of interferon alpha, a known inhibitor of HCV replication. The replicon assay system includes Neomycin Phosphotransferase (NPT) as a component of the replicon itself in order to detect the transcription of replicon gene products in the host cell. Cells in which the HCV replicon is actively replicating have high levels of NPT; the level of NPT is proportional to HCV replication. […] The NPT level of each sample is measured using a captured ELISA.
A protocol for testing compounds for the ability to inhibit viral replication of the Hepatitis C replicon cultured cells in which the replicon construct has been incorporated, follows.
The HCV replicon contains, 5′-3′, the HCV-IRES, the neomycin phosphotransferase (neo) gene, the IRES of encephalomyocarditis virus, which directs translation of HCV sequences NS3 to NS5B, and the 3′-NTR. The sequence of the HCV replicon has been deposited in GenBank (Accession no. AJ242652).
The replicon is transfected into Huh-7 cells using standard methods such as electroporation.
The equipment and materials include, but are not limited to, Huh-7 HCV replicon-containing cells, maintenance media (DMEM (Dulbecco's modified Eagle media) supplemented with 10% FBS, L-glutamine, non-essential amino acids, penicillin (100 units/ml), streptomycin (100 micrograms/ml), and 500 micrograms/ml of Geneticin (G418), screening media (DMEM supplemented with 10% FBS, L-glutamine, non-essential amino acids, penicillin (100 units/ml) and streptomycin (100 micrograms/ml)), 96 well tissue culture plates (flat bottom), 96 well plates (U bottom for drug dilution), Interferon alpha for positive control, fixation reagent (such as methanol:acetone), primary antibody (rabbit anti-NPTII), secondary antibody: Eu-N1 l, and enhancement solution.
The cells are then seeded onto 96-well plates at a density of 6000-7500 cells/100 microliters/well (6-7.5×10^5 cells/10 ml/plate). The plates are then incubated at 37° C. in a 5% CO2 incubator.
HCV replicon-containing cells are rinsed with once PBS once; 2 mls of trypsin are then added. Cells are incubated at 37° C. in a 5% CO2 incubator for 3-5 minutes. 10 mls of complete medium is added to stop the reaction. Cells are blown gently, put into a 15 ml tube, and spun at 1200 rpm for four minutes. The trypsin/medium solution is removed and 5 mls of medium (500 ml DMEM (high glucose)) from BRL catalog #12430-054; 50 mls 10% FBS, 5% Geneticin G418 (50 mg/ml, BRL catalog #10131-035), 5 ml MEM non-essential amino acids (100×BRL #11140-050) and 5 ml pen-strep (BRL #15140-148) is added. The cells and media are mixed carefully
Cells are plated with screening medium (500 ml DMEM (BRL #21063-029), 50 ml FBS (BRL #10082-147) and 5 ml MEM non-essential amino acid (BRL #11140-050) at 6000-7500 fcells/100 μl/well of 96 well plate (6-7.5×10^5 cells/10 ml/plate). Plates are placed into 37° C. 5% CO2 incubator overnight.
The following morning, drugs (test compounds or interferon alpha) are diluted in 96 well U bottom plates with media or DMSO/media, depending on the final concentration chosen for screening. Generally for 6 concentrations of each test compounds ranging from 10 micromolar to 0.03 micromolar are applied. […]

Broadly, the EC50 is the concentration needed to bring the measured effect to its halfway point. For `COc1ccc2c(O[C@@H]3C[C@H]4C(=O)N[C@]5(C(=O)NS(=O)(=O)C6CC6)C[C@H]5/C=C\CCCCC[C@H](CC(=O)OC(C)(C)C)C(=O)N4C3)cc(-c3ccccn3)nc2c1Cl` [Compound 88, tert-butyl 2-((2R,6R,14aR, 16aS,Z)-2-(8-chloro-7-methoxy-2-(pyridin-2-yl)quinolin-4-yloxy)-14a-(cyclopropylsulfonyl-carbamoyl)-5,16-dioxo-1,2,3,5,6,7,8,9,10,11, 13a,14,14a,15,16,16a-hexadecahydrocyclopropa [e]pyrrolo[1,2-a][1,4]diazacyclopentadecin-6-yl)acetate], the EC50 is less than 1000 nM.

For the compound `COc1ccc2c(O[C@@H]3C[C@H]4C(=O)N[C@]5(C(=O)NS(=O)(=O)C6CC6)C[C@H]5/C=C\CCCCC[C@H](CC(=O)N5CCCCC5)C(=O)N4C3)cc(-c3ccccn3)nc2c1Cl` [Compound 90, (2R,6R,14aR,16aS,Z)-2-(8-chloro-7-methoxy-2-(pyridin-2-yl)quinolin-4-yloxy)-N-(cyclopropylsulfonyl)-5, 16-dioxo-6-(2-oxo-2-(piperidin-1-yl)ethyl)-1,2,3,5,6,7,8,9,10,11, 13a,14,14a,15,16,16a-hexadecahydrocyclopropa [e]pyrrolo[1,2-a][1,4] diazacyclopentadecine-14a-carboxamide], the concentration for a half-maximal effect (EC50) was less than 1000 nM. Compound `COc1ccc2c(O[C@@H]3C[C@H]4C(=O)N[C@]5(C(=O)NS(=O)(=O)C6CC6)C[C@H]5/C=C\CCCCC[C@H](CC(=O)N5CCC(F)(F)C5)C(=O)N4C3)cc(-c3ccccn3)nc2c1Cl` [Compound 94, (2R,6R,14aR,16aS,Z)-2-(8-chloro-7-methoxy-2-(pyridin-2-yl)quinolin-4-yloxy)-N-(cyclopropylsulfonyl)-6-(2-(3,3-difluoropyrrolidin-1-yl)-2-oxoethyl)-5,16-dioxo-1,2,3,5,6,7,8,9,10,11, 13a,14,14a,15,16,16a-hexadecahydrocyclopropa [e]pyrrolo[1,2-a][1,4] diazacyclopentadecine-14a-carboxamide] had an EC50 of less than 1000 nM. `COc1ccc2c(O[C@@H]3C[C@H]4C(=O)N[C@]5(C(=O)NS(=O)(=O)C6CC6)C[C@H]5/C=C\CCCCC[C@H](CC(=O)N5CCCC(C)C5)C(=O)N4C3)cc(-c3ccccc3)nc2c1` (stereo partly drawn) [Compound 78, (2R,6R,13aS, 14aR,16aS,Z)-N-(cyclopropylsulfonyl)-2-(7-methoxy-2-phenylquinolin-4-yloxy)-6-(2-(3-methylpiperidin-1-yl)-2-oxoethyl)-5,16-dioxo-1,2,3,5,6,7,8,9,10,11, 13a,14,14a,15,16,16a-hexadecahydrocyclopropa [e]pyrrolo[1,2-a][1,4] diazacyclopentadecine-14a-carboxamide] had a half-maximal effective concentration (EC50) of less than 1000 nM. The value for `O=C1N[C@]2(C(=O)NS(=O)(=O)C3CC3)C[C@H]2/C=C\CCCCC[C@H](CC(=O)N2CCCC(F)(F)C2)C(=O)N2C[C@H](OC(=O)N3CCc4ccccc4C3)C[C@@H]12` [Compound 113, (2R,6R,14aR, 16aS,Z)-14a-(cyclopropylsulfonyl-carbamoyl)-6-(2-(3,3-difluoropiperidin-1-yl)-2-oxoethyl)-5,16-dioxo-1,2,3,5,6,7,8,9,10,11, 13a,14,14a,15,16,16a-hexadecahydrocyclopropa [e]pyrrolo[1,2-a][1,4] diazacyclopentadecin-2-yl 3,4-dihydroisoquinoline-2(1H)-carboxylate] was less than 1000 nM. With `COc1ccc2c(O[C@@H]3C[C@H]4C(=O)N[C@]5(C(=O)NS(=O)(=O)C6CC6)C[C@H]5/C=C\CCCCC[C@H](CC(=O)N5CC(C)CC(C)C5)C(=O)N4C3)cc(-c3ccccc3)nc2c1` (stereo partly drawn) [Compound 68, (2R,6R,13aS, 14aR,16aS,Z)-N-(cyclopropylsulfonyl)-6-(2-(3,5-dimethylpiperidin-1-yl)-2-oxoethyl)-2-(7-methoxy-2-phenylquinolin-4-yloxy)-5,16-dioxo-1,2,3,5,6,7,8,9,10,11, 13a,14,14a,15,16,16a-hexadecahydrocyclopropa [e]pyrrolo[1,2-a][1,4] diazacyclopentadecine-14a-carboxamide] the figure was less than 1000 nM; with `O=C(N[C@@H]1C[C@H]2C(=O)N[C@]3(C(=O)NS(=O)(=O)C4CC4)C[C@H]3/C=C\CCCCC[C@H](CC(=O)N3CCCCC3)C(=O)N2C1)c1cc(-c2ccccc2)nc2ccccc12` [Compound 81, (2R,6R,14aR,16aS,Z)-N-(cyclopropylsulfonyl)-5,16-dioxo-6-(2-oxo-2-(piperidin-1-yl)ethyl)-2-(2-phenylquinoline-4-carboxamido)-1,2,3,5,6,7,8,9,10,11, 13a,14,14a,15,16,16a-hexadecahydrocyclopropa [e]pyrrolo[1,2-a][1,4] diazacyclopentadecine-14a-carboxamide], less than 1000 nM; with `CCOC(=O)[C@@]12C[C@H]1/C=C\CCCCC[C@H](CC(=O)N1CCCCC1)C(=O)N1C[C@H](Oc3cc(-c4ccccc4)nc4cc(OC)ccc34)C[C@H]1C(=O)N2` [Compound 45, (2R,6R,13aS,14aR, 16aS,Z)-ethyl 2-(7-methoxy-2-phenylquinolin-4-yloxy)-5,16-dioxo-6-(2-oxo-2-(piperidin-1-yl)ethyl)-1,2,3,5,6,7,8,9,10,11, 13a,14,14a,15,16,16a-hexadecahydrocyclopropa [e]pyrrolo[1,2-a][1,4] diazacyclopentadecine-14a-carboxylate], more than 10000 nM.

Compound `COc1ccc2c(O[C@@H]3C[C@H]4C(=O)N[C@]5(C(=O)NS(=O)(=O)C6CC6)C[C@H]5/C=C\CCCCC[C@H](CC(=O)N5CCN(C(=O)N6CCCC6)CC5)C(=O)N4C3)cc(-c3ccccc3)nc2c1` [Compound 85, (2R,6R,14aR,16aS,Z)-N-(cyclopropylsulfonyl)-2-(7-methoxy-2-phenylquinolin-4-yloxy)-5,16-dioxo-6-(2-oxo-2-(4-(pyrrolidine-1-carbonyl)piperazin-1-yl)ethyl)-1,2,3,5,6,7,8,9,10,11, 13a,14,14a,15,16,16a-hexadecahydrocyclopropa [e]pyrrolo[1,2-a][1,4] diazacyclopentadecine-14a-carboxamide] returned an EC50 of less than 1000 nM. Compound `COc1ccc2c(O[C@@H]3C[C@H]4C(=O)N[C@]5(C(=O)NS(=O)(=O)C6CC6)CC5/C=C\CCCCC[C@H](CC(=O)N5CCC(C(F)(F)F)CC5)C(=O)N4C3)cc(-c3cccnc3)nc2c1C` (stereo partly drawn) [Compound 131, (2R,6R,14aR,16aS,Z)-N-(cyclopropylsulfonyl)-2-(7-methoxy-8-methyl-2-(pyridin-3-yl)quinolin-4-yloxy)-5,16-dioxo-6-(2-oxo-2-(4-(trifluoromethyl)piperidin-1-yl)ethyl)-1,2,3,5,6,7,8,9,10,11, 13a,14,14a,15,16,16a-hexadecahydrocyclopropa [e]pyrrolo[1,2-a][1,4] diazacyclopentadecine-14a-carboxamide] registered an EC50 of less than 1000 nM. The value for `COc1ccc2c(O[C@@H]3C[C@H]4C(=O)N[C@]5(C(=O)NS(=O)(=O)C6CC6)C[C@H]5/C=C\CCCCC[C@H](CC(=O)N5CCCC(F)(F)C5)C(=O)N4C3)nc(-c3ccccn3)cc2c1Cl` [Compound 130, (2R,6R,14aR,16aS,Z)-2-(5-chloro-6-methoxy-3-(pyridin-2-yl)isoquinolin-1-yloxy)-N-(cyclopropylsulfonyl)-6-(2-(3,3-difluoropiperidin-1-yl)-2-oxoethyl)-5,16-dioxo-1,2,3,5,6,7,8,9,10,11, 13a,14,14a,15,16,16a-hexadecahydrocyclopropa [e]pyrrolo[1,2-a][1,4] diazacyclopentadecine-14a-carboxamide] was less than 1000 nM.
